According to the supplement of paper PMC10307832:

Columns and labels:
Test in all cases: relative viability (nuclei count vs DMSO), 5 days (fraction); higher = more cells survive
NCI-H1703 = system: NCI-H1703
Procedure, shortened: (§1)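 Medians of duplicate plates are given as relative viability. That measure is the nuclei count in treated wells divided by the count in vehicle wells. Counts were taken on 4× images of lung cancer cell lines in 1536-well plates, 5 days after pin-tool dosing the day after seeding with one drug alone or a fixed anchor-drug dose plus five library-drug doses (not always all listed) in √10 steps.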

IA-LM = system: IA-LM
Procedure, shortened: as §1

NCI-H1299 = system: NCI-H1299
Procedure, shortened: as §1

Calu-6 = system: Calu-6
Procedure, shortened: as §1

A549 = system: A549
Procedure, shortened: as §1

EBC-1 = system: EBC-1
Procedure, shortened: as §1

NCI-H1437 = system: NCI-H1437
Procedure, shortened: as §1

Compound	relative viability (NCI-H1703; first compound 0.03162 µM)	relative viability (NCI-H1703; first compound 0.3162 µM)	relative viability (IA-LM; first compound 0.01 µM)	relative viability (IA-LM; first compound 0.03162 µM)	relative viability (IA-LM; first compound 0.3162 µM)	relative viability (NCI-H1299; first compound 0.01 µM)	relative viability (NCI-H1299; first compound 0.03162 µM)	relative viability (NCI-H1299; first compound 0.3162 µM)	relative viability (Calu-6; first compound 0.03162 µM)	relative viability (Calu-6; first compound 0.3162 µM)	relative viability (A549; first compound 0.01 µM)	relative viability (A549; first compound 0.03162 µM)	relative viability (A549; first compound 0.3162 µM)	relative viability (EBC-1; first compound 0.01 µM)	relative viability (EBC-1; first compound 0.03162 µM)	relative viability (EBC-1; first compound 0.3162 µM)	relative viability (NCI-H1437; first compound 0.01 µM)	relative viability (NCI-H1437; first compound 0.03162 µM)	relative viability (NCI-H1437; first compound 0.3162 µM)	relative viability (NCI-H1703; first compound 0.01 µM)	relative viability (Calu-6; first compound 0.01 µM)
CC(C)Oc1cc(Nc2nc(N[C@@H](C)c3ccc(F)cn3)ncc2Cl)n[nH]1 [AZ23] + CC1(C)CCC(c2ccc(Cl)cc2)=C(CN2CCN(c3ccc(C(=O)NS(=O)(=O)c4ccc(N[C@H](CCN5CCOCC5)CSc5ccccc5)c(S(=O)(=O)C(F)(F)F)c4)cc3)CC2)C1 [Navitoclax] (partner 0.5 µM)	1.13	1.08	0.837	0.97	0.848	1.08	1.04	1.08	0.952	0.739	1.58	1.48	1.2	0.37	0.451	0.371	1.33	1.29	1.13	–	–
CC(C)Oc1cc(Nc2nc(N[C@@H](C)c3ccc(F)cn3)ncc2Cl)n[nH]1 [AZ23] + CC(C)C[C@H](NC(=O)[C@H](Cc1ccccc1)NC(=O)c1cnccn1)B(O)O [Bortezomib] (partner 0.002 µM)	0.367	0.363	1	0.883	0.776	1.03	1.02	1.1	1.15	1.04	–	–	–	0.579	0.64	0.493	0.541	0.484	0.569	–	–
CC(C)Oc1cc(Nc2nc(N[C@@H](C)c3ccc(F)cn3)ncc2Cl)n[nH]1 [AZ23] + CS(=O)(=O)CCNCc1ccc(-c2ccc3ncnc(Nc4ccc(OCc5cccc(F)c5)c(Cl)c4)c3c2)o1 [Lapatinib] (partner 2 µM)	1.16	1.3	0.872	1.37	0.871	0.977	1.08	1.03	1.25	1.08	1.16	0.945	1.02	–	0.234	0.194	0.729	0.975	0.957	0.939	–
CC(C)Oc1cc(Nc2nc(N[C@@H](C)c3ccc(F)cn3)ncc2Cl)n[nH]1 [AZ23] + CS(=O)(=O)N1CCN(Cc2cc3nc(-c4cccc5[nH]ncc45)nc(N4CCOCC4)c3s2)CC1 [Pictilisib] (partner 1 µM)	0.291	0.218	0.403	0.334	0.419	–	0.954	1.13	1.13	0.986	0.586	0.676	0.416	0.312	0.397	0.345	0.374	0.389	0.46	–	0.883
CC(C)Oc1cc(Nc2nc(N[C@@H](C)c3ccc(F)cn3)ncc2Cl)n[nH]1 [AZ23] + C[C@@H](Oc1cc(-c2cnn(C3CCNCC3)c2)cnc1N)c1c(Cl)ccc(F)c1Cl [Crizotinib] (partner 1 µM)	0.761	0.626	0.919	0.824	0.813	1.06	1.01	1.08	0.987	0.974	1.08	1.03	0.943	–	0.196	0.185	1.21	0.996	1.03	0.51	–
